10 molecules from ChEMBL document CHEMBL2401614, “Synthesis of artemisinin dimers using the Ugi reaction and their in vitro efficacy on breast cancer cells” (Bioorg Med Chem Lett, 2013) can be followed below.

The subject of test [1] is MCF-10A. As to the kind of experiment: Selectivity index, ratio of IC50 for human MCF10A cells to IC50 for human BT474 cells. In kind it is functional.
Test [2] concerns BT-474. Nature of the test: Cytotoxicity against human BT474 cells after 48 hrs by MTT assay. The settings on record: BT-474, 48 h. Type of test: functional, cell-based.
The test system of test [3] is MCF-10A. Nature of the test: Selectivity index, ratio of IC50 for human MCF10A cells to IC50 for human MDA-MB-231 cells. In kind it is functional.
Test [4] relates to MCF-10A. As to the kind of experiment: Cytotoxicity against human MCF10A cells after 48 hrs by MTT assay. Type of test: cell-based.
Test [5] can be described thus: Cytotoxicity against human NCI60 cells relative to artesunate. Type of test: functional.
Test [6] relates to MDA-MB-231. Nature of the test: Cytotoxicity against human MDA-MB-231 cells after 48 hrs by MTT assay. Type of test: functional, cell-based. The settings on record: MDA-MB-231, 48 h.
Test [7] has as its system BT-474. As to the kind of experiment: Ratio of artemisinin dimer succinate IC50 to compound IC50 for human BT474 cells. In kind it is functional.

Bounds are passed on as bounds.

As for `C[C@H]1[C@@H](CC(COC(=O)CCC(=O)O)C[C@H]2O[C@@H]3O[C@@]4(C)CC[C@H]5[C@H](C)CC[C@@H]([C@H]2C)[C@@]35OO4)O[C@@H]2O[C@@]3(C)CC[C@H]4[C@H](C)CC[C@@H]1[C@@]24OO3` (stereo not given in full), the figures for the “Ratio IC50” value in test [1] and in test [3] were 210 and 88, respectively. Further, the IC50 was 0.1 µM in test [2], 21 µM in test [4] and 0.24 µM in test [6]. Further, in test [5], the “fold change (FC)” value was “<=500”.

Turning to `C[C@H]1[C@@H](CCCN(c2c(F)c(F)cc(F)c2F)C(CC[C@H]2O[C@@H]3O[C@@]4(C)CC[C@H]5[C@H](C)CC[C@@H]([C@H]2C)[C@@]35OO4)C(=O)NCC(=O)O)O[C@@H]2O[C@@]3(C)CC[C@H]4[C@H](C)CC[C@@H]1[C@@]24OO3` (stereo not given in full), the figures for the “Ratio IC50” value in test [1], in test [7] and in test [3] were 8200, 8 and 43, respectively. The IC50 in test [2] was 0.012 µM; in test [4], 98 µM; in test [6] it was 2.3 µM.

For `COC(=O)CNC(=O)C(CC[C@H]1O[C@@H]2O[C@@]3(C)CC[C@H]4[C@H](C)CC[C@@H]([C@H]1C)[C@@]24OO3)N(C(=O)c1ccccc1)C(C)C` (stereo not given in full), the IC50 in test [2], in test [4] and in test [6] was more than 100 µM in each case.

Regarding `COC(=O)CNC(=O)C(CC[C@H]1O[C@@H]2O[C@@]3(C)CC[C@H]4[C@H](C)CC[C@@H]([C@H]1C)[C@@]24OO3)N(CCC[C@H]1O[C@@H]2O[C@@]3(C)CC[C@H]4[C@H](C)CC[C@@H]([C@H]1C)[C@@]24OO3)C(=O)C(F)(F)F` (mixture of isomers), the “Ratio IC50” value was determined as 0.7 in test [1] and 0.24 in test [3]. Besides, the half-inhibitory concentration (IC50) in test [2] was 6.6 µM; in test [4] it was 4.6 µM; in test [6], 19 µM.

Turning to `COC(=O)CNC(=O)C(CC[C@H]1O[C@@H]2O[C@@]3(C)CC[C@H]4[C@H](C)CC[C@@H]([C@H]1C)[C@@]24OO3)N(CCC[C@H]1O[C@@H]2O[C@@]3(C)CC[C@H]4[C@H](C)CC[C@@H]([C@H]1C)[C@@]24OO3)C(=O)c1ccccc1` (mixture of isomers), the “Ratio IC50” value is on record as 6.3 in test [1] and 0.45 in test [3]. Also, the IC50 in test [2] stood at 0.79 µM; in test [4], 5 µM; in test [6] it was 11 µM.

Regarding `COC(=O)CNC(=O)C(CC[C@H]1O[C@@H]2O[C@@]3(C)CC[C@H]4[C@H](C)CC[C@@H]([C@H]1C)[C@@]24OO3)N(CCC[C@H]1O[C@@H]2O[C@@]3(C)CC[C@H]4[C@H](C)CC[C@@H]([C@H]1C)[C@@]24OO3)C(=O)c1cccc(OC)c1OC` (mixture of isomers), the results for the “Ratio IC50” value in test [1] and in test [3] were 0.98 and 0.48, respectively. The 50% inhibitory concentration (IC50) in test [2] was 5.8 µM; in test [4], 5.7 µM; in test [6] it was 12 µM.

Regarding `COC(=O)CNC(=O)C(CC[C@H]1O[C@@H]2O[C@@]3(C)CC[C@H]4[C@H](C)CC[C@@H]([C@H]1C)[C@@]24OO3)N(CCC[C@H]1O[C@@H]2O[C@@]3(C)CC[C@H]4[C@H](C)CC[C@@H]([C@H]1C)[C@@]24OO3)C(=O)c1ccc(N(C)C)cc1` (mixture of isomers), the “Ratio IC50” value in test [1] was 17; in test [3], 1.3. Besides, the IC50 in test [2] worked out at 0.88 µM; in test [4], 15 µM; in test [6], 12 µM.

Regarding `COC(=O)CNC(=O)C(CC[C@H]1O[C@@H]2O[C@@]3(C)CC[C@H]4[C@H](C)CC[C@@H]([C@H]1C)[C@@]24OO3)N(CCC[C@H]1O[C@@H]2O[C@@]3(C)CC[C@H]4[C@H](C)CC[C@@H]([C@H]1C)[C@@]24OO3)C(=O)c1cnccn1` (mixture of isomers), the results for the “Ratio IC50” value in test [1] and in test [3] were 15 and 0.96, respectively. Also, the IC50 turned out to be 1.7 µM in test [2], 25 µM in test [4] and 26 µM in test [6].

`COC(=O)CNC(=O)C(CC[C@H]1O[C@@H]2O[C@@]3(C)CC[C@H]4[C@H](C)CC[C@@H]([C@H]1C)[C@@]24OO3)N(CCC[C@H]1O[C@@H]2O[C@@]3(C)CC[C@H]4[C@H](C)CC[C@@H]([C@H]1C)[C@@]24OO3)c1ccc([N+](=O)[O-])cc1` (mixture of isomers): the “Ratio IC50” value in test [1] was found to be 490; in test [3] it was 39. Moreover, the IC50 in test [2] turned out to be 0.096 µM; in test [4] it was 47 µM; in test [6], 1.2 µM.

Regarding `C[C@H]1[C@H](OC(=O)CCC(=O)O)O[C@@H]2O[C@@]3(C)CC[C@H]4[C@H](C)CC[C@@H]1[C@@]24OO3` [ARTESUNATE], the “Ratio IC50” value in test [1] worked out at 2.7; in test [3] it was 0.46. In addition, the IC50 in test [2] is 7.8 µM; in test [4], 21 µM; in test [6], 46 µM.
